Test results: publication PMC4301037, “Identification and Structure–Function Analysis of Subfamily Selective G Protein-Coupled Receptor Kinase Inhibitors” (ACS Chemical Biology, 2014)
Read-outs that look alike come from different tables or passages of the source.

Columns and labels:
GRK1 [1] = target: T1, GRK1 (Bos taurus, UniProt P28327); experiment: DSF retest (confirmation), GRK1; assay type: binding, bovine; conditions: for GRK1 Tm: 0.2 mg mL^–1 kinase; for GRK1 ΔTm: relative to intrinsic melting point of the kinase
T1 construct: Bovine GRK1_1–535, bovine and human GRK2S670A; made in house
T1 sequence (P28327 1-535): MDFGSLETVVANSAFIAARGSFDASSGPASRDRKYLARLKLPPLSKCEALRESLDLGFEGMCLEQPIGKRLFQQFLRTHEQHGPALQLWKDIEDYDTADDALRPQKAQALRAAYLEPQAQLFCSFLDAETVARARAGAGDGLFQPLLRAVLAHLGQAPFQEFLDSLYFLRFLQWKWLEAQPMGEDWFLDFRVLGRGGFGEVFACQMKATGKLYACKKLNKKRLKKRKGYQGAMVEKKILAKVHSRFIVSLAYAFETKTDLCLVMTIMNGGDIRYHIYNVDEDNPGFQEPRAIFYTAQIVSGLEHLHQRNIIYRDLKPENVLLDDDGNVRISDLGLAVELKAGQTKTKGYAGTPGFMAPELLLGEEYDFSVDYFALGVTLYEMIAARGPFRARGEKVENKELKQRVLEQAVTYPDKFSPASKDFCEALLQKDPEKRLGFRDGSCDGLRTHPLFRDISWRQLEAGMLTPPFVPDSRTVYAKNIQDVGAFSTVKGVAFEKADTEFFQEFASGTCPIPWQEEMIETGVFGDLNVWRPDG

protein kinase A (PKA) = target: T2, protein kinase A (PKA) (Mus musculus, UniProt P05132); experiment: DSF retest (confirmation), PKA; assay type: binding; conditions: for PKA Tm: 0.2 mg mL^–1 kinase; for PKA ΔTm: relative to intrinsic melting point of the kinase
T2 construct: His tag (inferred from pET15b vector and Ni-NTA column) (N); host or cells: E. coli Rosetta(DE3)pLysS
Procedure: Fourteen compounds (Figure 1a–c), including all GRK2 hits except staurosporine, and the most stabilizing pyrrolopyrimidine-containing compounds were obtained from GSK and retested using DSF on GRKs representing each vertebrate subfamily (GRK1, 2, and 5) (Table 1). […] The ability of these compounds to shift the Tm of the related AGC family kinase member protein kinase A (PKA) was also assessed (Table 1). In no case was ΔTm greater for PKA than for one of the tested GRKs. […]. There was no correlation for GRK1 (Figure 2c).
DSF was conducted using a ThermoFluor plate reader (Johnson & Johnson) in a buffer containing 20 mM HEPES, pH 7.0, 5 mM MgCl2, 2 mM DTT, and 1 mM CHAPS with 0.2 mg mL^–1 final concentration of GRK or PKA and 100 μM 1-anilinonaphthalene-8-sulfonic acid.[14]

GRK1 [2] = target: T1, GRK1; experiment: In vitro phosphorylation assay (tubulin, 5 μM ATP), GRK1; assay type: biochemical, bovine; conditions: read-out: GRK1 log IC50 (converted)
GRK1, 2, and 5 and PKA = experiment: Ssel selectivity score calculated from inhibition of GRK1, 2, 5 and PKA
bovine GRK5 = target: T3, bovine GRK5 (Bos taurus, UniProt P43249); experiment: Primary DSF inhibitor screen, GRK5; assay type: binding; conditions: 10 μM compound; for ΔTm, primary screen, GRK5 / ΔTm at 10 µM: 2 μM kinase, relative to DMSO control; for ΔTm at 10 µM: read-out: ΔTm, primary screen, GRK5; for rank in the primary screen, GRK5: rank ordering of compounds in primary DSF screen
T3 construct: when using full-length kinases as the receptor[37] instead of isolated kinase domains; made in house
T3 sequence (P43249 whole entry, the tested form may be a part): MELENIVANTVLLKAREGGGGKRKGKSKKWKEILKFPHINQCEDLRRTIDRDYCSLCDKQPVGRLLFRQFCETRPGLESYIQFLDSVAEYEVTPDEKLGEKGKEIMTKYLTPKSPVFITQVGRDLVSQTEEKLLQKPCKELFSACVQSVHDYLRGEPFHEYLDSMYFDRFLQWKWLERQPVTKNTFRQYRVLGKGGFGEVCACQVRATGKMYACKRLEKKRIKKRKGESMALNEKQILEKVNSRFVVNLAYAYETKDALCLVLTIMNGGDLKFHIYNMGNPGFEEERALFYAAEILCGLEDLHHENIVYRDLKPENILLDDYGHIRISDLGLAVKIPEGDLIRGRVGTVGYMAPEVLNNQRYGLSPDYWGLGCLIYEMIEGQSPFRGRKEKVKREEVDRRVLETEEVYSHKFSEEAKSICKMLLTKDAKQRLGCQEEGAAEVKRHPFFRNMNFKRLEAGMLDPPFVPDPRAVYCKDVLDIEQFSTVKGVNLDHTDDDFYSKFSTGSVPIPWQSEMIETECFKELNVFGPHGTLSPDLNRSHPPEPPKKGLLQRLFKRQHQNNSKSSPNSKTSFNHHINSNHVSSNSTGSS

GRK2 [3] = target: T4, GRK2 (Homo sapiens, UniProt P25098, S670A); experiment: DSF retest (confirmation), GRK2; assay type: binding
T4 construct: made in house
T4 sequence (P25098 1-689 S670A): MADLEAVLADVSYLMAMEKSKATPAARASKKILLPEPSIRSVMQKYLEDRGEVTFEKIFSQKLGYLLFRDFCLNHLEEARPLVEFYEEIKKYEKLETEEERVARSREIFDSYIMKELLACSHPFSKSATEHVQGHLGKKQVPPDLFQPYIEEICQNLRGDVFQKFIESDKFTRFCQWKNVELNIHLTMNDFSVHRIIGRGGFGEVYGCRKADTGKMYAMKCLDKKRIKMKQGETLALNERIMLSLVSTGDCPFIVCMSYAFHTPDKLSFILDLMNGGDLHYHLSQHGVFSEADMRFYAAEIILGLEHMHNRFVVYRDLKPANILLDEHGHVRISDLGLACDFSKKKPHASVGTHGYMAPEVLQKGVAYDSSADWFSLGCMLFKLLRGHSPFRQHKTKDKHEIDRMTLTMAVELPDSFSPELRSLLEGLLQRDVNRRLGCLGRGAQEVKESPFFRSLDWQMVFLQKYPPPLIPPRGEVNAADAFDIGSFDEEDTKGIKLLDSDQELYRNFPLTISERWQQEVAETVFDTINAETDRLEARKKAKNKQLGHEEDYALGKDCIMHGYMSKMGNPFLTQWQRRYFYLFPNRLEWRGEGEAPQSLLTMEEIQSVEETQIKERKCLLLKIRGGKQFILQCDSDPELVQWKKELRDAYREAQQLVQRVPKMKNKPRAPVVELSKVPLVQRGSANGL

GRK5 [4] = target: T5, GRK5 (Bos taurus, UniProt P43249); experiment: DSF retest (confirmation), GRK5; assay type: binding, bovine; conditions: for GRK5 Tm: 0.2 mg mL^–1 kinase; for GRK5 ΔTm: relative to intrinsic melting point of the kinase
T5 construct: when using full-length kinases as the receptor[37] instead of isolated kinase domains; made in house
T5 sequence (P43249 whole entry, the tested form may be a part): as the sequence (P43249 whole entry, the tested form may be a part) above

GRK2 [5] = target: T6, GRK2 (Bos taurus, UniProt P21146, S670A); experiment: In vitro phosphorylation assay (tubulin, 5 μM ATP), GRK2; assay type: biochemical, bovine; conditions: read-out: GRK2 log IC50 (converted)
T6 construct: made in house
T6 sequence (P21146 1-689 S670A): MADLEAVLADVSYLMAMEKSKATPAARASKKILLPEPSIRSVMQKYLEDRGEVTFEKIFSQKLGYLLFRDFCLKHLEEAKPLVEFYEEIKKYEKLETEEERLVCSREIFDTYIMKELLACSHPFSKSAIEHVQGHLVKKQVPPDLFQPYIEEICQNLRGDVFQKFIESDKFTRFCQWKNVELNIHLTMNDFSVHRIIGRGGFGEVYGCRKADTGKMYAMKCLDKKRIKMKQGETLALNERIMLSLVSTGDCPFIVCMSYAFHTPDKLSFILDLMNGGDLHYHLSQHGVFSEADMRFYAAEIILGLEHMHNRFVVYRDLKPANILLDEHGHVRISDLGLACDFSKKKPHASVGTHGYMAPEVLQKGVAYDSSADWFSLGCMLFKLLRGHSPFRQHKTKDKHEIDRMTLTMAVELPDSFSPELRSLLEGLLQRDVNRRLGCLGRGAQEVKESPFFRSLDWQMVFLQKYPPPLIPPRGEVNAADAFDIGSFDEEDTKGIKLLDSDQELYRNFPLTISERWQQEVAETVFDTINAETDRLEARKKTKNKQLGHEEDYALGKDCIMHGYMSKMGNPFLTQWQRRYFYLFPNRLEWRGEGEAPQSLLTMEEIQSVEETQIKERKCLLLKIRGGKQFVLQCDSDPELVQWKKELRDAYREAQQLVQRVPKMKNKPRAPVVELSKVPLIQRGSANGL

GRK5 [6] = target: T5, GRK5; experiment: In vitro phosphorylation assay (tubulin, 5 μM ATP), GRK5; assay type: biochemical, bovine; conditions: read-out: GRK5 log IC50 (converted)
PKA = target: T7, PKA (Mus musculus, UniProt P05132); experiment: PKA inhibition assay (ADP-Glo, CREBtide, 100 μM ATP); assay type: biochemical; conditions: logarithm of IC50 (−3.3 corresponds to 0.5 mM, footnote c); 438 nM PKA, 100 μM ATP, CREBtide; read-out: PKA log IC50 (converted)
T7 construct: His tag (inferred from pET15b vector and Ni-NTA column) (N); host or cells: E. coli Rosetta(DE3)pLysS

human GRK2S670A = target: T8, human GRK2S670A (Homo sapiens, UniProt P25098, S670A); experiment: Primary DSF (differential scanning fluorimetry) inhibitor screen, GRK2; assay type: binding
T8 construct: when using full-length kinases as the receptor[37] instead of isolated kinase domains; made in house
T8 sequence (P25098 1-689 S670A): T4 sequence (P25098 1-689 S670A)

[7] = selectivity score from inhibition of GRK1, 2, 5 and PKA, <0.5 selective

CC1=C(C(=O)Nc2ccc3[nH]ncc3c2)C(c2ccc(F)cc2)NC(=O)N1 (stereo not drawn) [GSK180736A]
GRK1 Tm (GRK1 [1]): 25.3 °C
GRK1 ΔTm (GRK1 [1]): 5.4 °C
PKA Tm (protein kinase A (PKA)): 49.2 °C
PKA ΔTm (protein kinase A (PKA)): 3.8 °C
IC50 (GRK1 [2]): > 1000 µM
Ssel (GRK1, 2, and 5 and PKA; [7]): 0.022

CCCN1CCC(Oc2cc(Nc3nc(Nc4cccc(F)c4C(N)=O)c4cc[nH]c4n3)c(OC)cc2Cl)CC1 [GSK1713088A]
ΔTm, primary screen, GRK5 (bovine GRK5): 7.4 °C
ΔTm at 10 µM (bovine GRK5): 7.37 °C
rank in the primary screen, GRK5 (bovine GRK5): 11
GRK2 Tm (GRK2 [3]; 0.2 mg mL^–1 kinase): 44.2 °C
GRK2 ΔTm (GRK2 [3]; relative to intrinsic melting point of the kinase): 6.7 °C
GRK5 Tm (GRK5 [4]): 40.3 °C
GRK5 ΔTm (GRK5 [4]): 13.6 °C
PKA Tm (protein kinase A (PKA)): 45.8 °C
PKA ΔTm (protein kinase A (PKA)): 0.4 °C
IC50 (GRK2 [5]): 6.31 µM
IC50 (GRK5 [6]): 3.16 µM
IC50 (PKA): > 501 µM

COc1cc2c(cc1Nc1nc(Nc3ccsc3C(N)=O)c3cc[nH]c3n1)N(C(=O)CN(C)C)CCC2(C)C [GSK2163632A]
ΔTm, primary screen, GRK5 (bovine GRK5): 9.2 °C
ΔTm at 10 µM (bovine GRK5): 9.25 °C
rank in the primary screen, GRK5 (bovine GRK5): 4
GRK1 Tm (GRK1 [1]): 26.3 °C
GRK1 ΔTm (GRK1 [1]): 6.4 °C
GRK5 Tm (GRK5 [4]): 33.0 °C
GRK5 ΔTm (GRK5 [4]): 6.3 °C
PKA Tm (protein kinase A (PKA)): 48.5 °C
PKA ΔTm (protein kinase A (PKA)): 3.1 °C
IC50 (GRK1 [2]): 0.126 µM
IC50 (PKA): > 501 µM
Ssel (GRK1, 2, and 5 and PKA; [7]): 0.199

O=C1c2ccccc2-c2n[nH]c3cccc1c23 [JNK Inhibitor II, Anthra[1,9-cd]pyrazol-6(2H)-one]
ΔTm, primary screen, GRK5 (bovine GRK5): 2.19 °C

COC(=O)[C@@]1(O)C[C@H]2O[C@]1(C)n1c3ccccc3c3c4c(c5c6ccccc6n2c5c31)C(=O)NC4 [K252a]
ΔTm, primary screen, GRK5 (bovine GRK5): 9.89 °C

CS(=O)(=O)c1cccc(CNc2nc(Nc3ccc4c(c3)CCC(=O)N4)ncc2C(F)(F)F)c1 [PF 573228]
ΔTm, primary screen, GRK5 (bovine GRK5): 2.67 °C

O=C1NC(=O)C(c2cn(CCCn3ccnc3)c3ccccc23)=C1Nc1ccccc1 [PKC beta inhibitor]
ΔTm, primary screen, GRK5 (bovine GRK5): 3.13 °C

CC(C)[C@H](CO)Nc1nc(Nc2cccc(Cl)c2)c2ncn(C(C)C)c2n1 [Purvalanol A, 2-(1R-Isopropyl-2-hydroxyethylamino)-6-(3-chloroanilino)-9-isopropyl-purine]
ΔTm at 10 µM (bovine GRK5): 6.44 °C

O=c1c(O)c(-c2ccc(O)c(O)c2)oc2cc(O)cc(O)c12 [Quercetin, 3,3',4',5,7-Pentahydroxyflavone]
ΔTm at 10 µM (bovine GRK5): 10.6 °C

O=C1NC(=NCc2cccs2)S/C1=C\c1ccc2ncccc2c1 [RO-3306]
ΔTm, primary screen, GRK5 (bovine GRK5): 5.48 °C

Cn1cc(C2=C(c3ccc(Cl)cc3Cl)C(=O)NC2=O)c2ccccc21 [SB216763]
ΔTm at 10 µM (bovine GRK5): 2.78 °C

Nc1nonc1-c1nc2cnccc2n1C1CC1 [SB-736302]
ΔTm at 10 µM (bovine GRK5): 2.86 °C

O=C(Nc1n[nH]c2nc(-c3ccco3)c(Br)cc12)C1CC1 [SB-739452]
ΔTm at 10 µM (bovine GRK5): 2.03 °C

O=C(O)c1ccc2c3c1cccc3c(=O)n1c3ccccc3nc21 [STO-609]
ΔTm at 10 µM (bovine GRK5): 3.24 °C

COc1ccc2c(c1)/C(=C/c1cnc[nH]1)C(=O)N2 [SU9516, 3-[1-(3H-Imidazol-4-yl)-meth-(Z)-ylidene]-5-methoxy-1,3-dihydro-indol-2-one]
ΔTm at 10 µM (bovine GRK5): 3.59 °C

CN[C@@H]1C[C@H]2O[C@@](C)([C@@H]1OC)n1c3ccccc3c3c4c(c5c6ccccc6n2c5c31)C(=O)NC4 [Staurosporine]
ΔTm, primary screen, GRK2 (human GRK2S670A; 10 μM compound, 2 μM kinase, relative to DMSO control): 5.4 °C
ΔTm at 10 µM (human GRK2S670A; read-out: ΔTm, primary screen, GRK2, 10 μM compound, 2 μM kinase, relative to DMSO control): 5.37 °C
ΔTm, primary screen, GRK5 (bovine GRK5): 12 °C
ΔTm at 10 µM (bovine GRK5): 11.9 °C

Cl.Cl.NCCNc1ncc(C(N)=O)c(Nc2cccc(C(F)(F)F)c2)n1 [Syk Inhibitor II]
ΔTm, primary screen, GRK5 (bovine GRK5): 2.43 °C

Cn1cc(/C=C2\C(=O)Nc3ccc(S(N)(=O)=O)cc32)c2ccccc21 [Syk Inhibitor]
ΔTm, primary screen, GRK5 (bovine GRK5): 3.6 °C

Cc1cc(C=C2C(=O)C=CC2=O)cc(C)c1O [TX-1918, 2-((3,5-dimethyl-4-hydroxyphenyl)-methylene)-4-cyclopentene-1,3-dione]
ΔTm, primary screen, GRK5 (bovine GRK5): 2.21 °C

O [Water]
ΔTm, primary screen, GRK5 (bovine GRK5): 2.01 °C

Fc1ccc([C@@H]2CCNC[C@H]2COc2ccc3c(c2)OCO3)cc1 [paroxetine]
PKA Tm (protein kinase A (PKA)): 50.1 °C
PKA ΔTm (protein kinase A (PKA)): 4.7 °C
IC50 (PKA): > 501 µM
Ssel (GRK1, 2, and 5 and PKA): 0.085

Cdk1/2 Inhibitor III
ΔTm, primary screen, GRK5 (bovine GRK5): 3.6 °C

IGF-1R Inhibitor II
ΔTm, primary screen, GRK5 (bovine GRK5): 2.42 °C

Wee1/Chk1 inhibitor
ΔTm, primary screen, GRK5 (bovine GRK5): 4.89 °C
